SMILES strings stand for the structures.

From patent US11034672B1, “Tyrosine kinase inhibitor compositions, methods of making and methods of use” (Black Diamond Therapeutics, Inc., priority 2018, dated 2021) come the findings set out here.

What all share (type): cell-based
In assay [1] the target is T1, EGFR WT (Homo sapiens, UniProt P00533). Briefly: Activity for inhibiting EGFR (Table A), EGFR WT. The conditions noted are these: read-out: EGFR WT, potency code (IC50).
The target in assay [2] is T2, EGFR V3 (Homo sapiens, UniProt P00533, DELINS30-297G).
T2 construct: expressed in transfected cells; host or cells: BaF3 (murine pro-B), retroviral pMXs-IRES-Blasticidin
T2 sequence (P00533 with tags, fused parts or gaps DELINS30-297G): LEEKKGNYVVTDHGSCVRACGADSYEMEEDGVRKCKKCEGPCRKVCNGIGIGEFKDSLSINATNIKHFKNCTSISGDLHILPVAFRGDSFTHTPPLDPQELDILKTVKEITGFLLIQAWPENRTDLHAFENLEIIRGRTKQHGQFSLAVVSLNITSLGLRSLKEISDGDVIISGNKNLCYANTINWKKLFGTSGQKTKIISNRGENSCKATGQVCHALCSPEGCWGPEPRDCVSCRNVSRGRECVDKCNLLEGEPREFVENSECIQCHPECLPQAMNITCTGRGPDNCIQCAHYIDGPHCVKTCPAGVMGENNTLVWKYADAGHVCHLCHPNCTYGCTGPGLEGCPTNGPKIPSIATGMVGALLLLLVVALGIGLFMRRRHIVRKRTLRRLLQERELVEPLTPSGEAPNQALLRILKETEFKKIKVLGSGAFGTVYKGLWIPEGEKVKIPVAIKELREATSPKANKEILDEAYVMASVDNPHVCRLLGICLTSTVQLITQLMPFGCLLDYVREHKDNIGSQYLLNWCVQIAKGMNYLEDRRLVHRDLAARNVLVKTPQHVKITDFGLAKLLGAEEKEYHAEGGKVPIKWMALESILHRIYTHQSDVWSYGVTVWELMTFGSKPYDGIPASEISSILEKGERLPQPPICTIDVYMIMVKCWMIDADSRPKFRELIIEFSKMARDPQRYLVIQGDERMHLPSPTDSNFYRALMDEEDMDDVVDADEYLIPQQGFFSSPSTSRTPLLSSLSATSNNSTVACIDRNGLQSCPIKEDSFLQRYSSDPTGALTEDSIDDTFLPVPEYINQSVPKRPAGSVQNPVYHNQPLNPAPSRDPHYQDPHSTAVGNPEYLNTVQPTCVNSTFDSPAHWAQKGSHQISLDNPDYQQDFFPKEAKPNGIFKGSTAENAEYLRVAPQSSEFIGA
Briefly: Activity for inhibiting EGFR (Table A), EGFR V3 (EGFR-Viii). The conditions noted are these: read-out: EGFR V3, potency code (IC50).

Assay [3] addresses T3, HER2 WT (Homo sapiens, UniProt P04626). Briefly: Activity for inhibiting HER2 (Table B), HER2 WT.
The target in assay [4] is T4, HER2 S310F (Homo sapiens, UniProt P04626, S310F).
T4 construct: expressed in transfected cells; host or cells: BaF3 (murine pro-B)
T4 sequence (P04626 23-1255 S310F): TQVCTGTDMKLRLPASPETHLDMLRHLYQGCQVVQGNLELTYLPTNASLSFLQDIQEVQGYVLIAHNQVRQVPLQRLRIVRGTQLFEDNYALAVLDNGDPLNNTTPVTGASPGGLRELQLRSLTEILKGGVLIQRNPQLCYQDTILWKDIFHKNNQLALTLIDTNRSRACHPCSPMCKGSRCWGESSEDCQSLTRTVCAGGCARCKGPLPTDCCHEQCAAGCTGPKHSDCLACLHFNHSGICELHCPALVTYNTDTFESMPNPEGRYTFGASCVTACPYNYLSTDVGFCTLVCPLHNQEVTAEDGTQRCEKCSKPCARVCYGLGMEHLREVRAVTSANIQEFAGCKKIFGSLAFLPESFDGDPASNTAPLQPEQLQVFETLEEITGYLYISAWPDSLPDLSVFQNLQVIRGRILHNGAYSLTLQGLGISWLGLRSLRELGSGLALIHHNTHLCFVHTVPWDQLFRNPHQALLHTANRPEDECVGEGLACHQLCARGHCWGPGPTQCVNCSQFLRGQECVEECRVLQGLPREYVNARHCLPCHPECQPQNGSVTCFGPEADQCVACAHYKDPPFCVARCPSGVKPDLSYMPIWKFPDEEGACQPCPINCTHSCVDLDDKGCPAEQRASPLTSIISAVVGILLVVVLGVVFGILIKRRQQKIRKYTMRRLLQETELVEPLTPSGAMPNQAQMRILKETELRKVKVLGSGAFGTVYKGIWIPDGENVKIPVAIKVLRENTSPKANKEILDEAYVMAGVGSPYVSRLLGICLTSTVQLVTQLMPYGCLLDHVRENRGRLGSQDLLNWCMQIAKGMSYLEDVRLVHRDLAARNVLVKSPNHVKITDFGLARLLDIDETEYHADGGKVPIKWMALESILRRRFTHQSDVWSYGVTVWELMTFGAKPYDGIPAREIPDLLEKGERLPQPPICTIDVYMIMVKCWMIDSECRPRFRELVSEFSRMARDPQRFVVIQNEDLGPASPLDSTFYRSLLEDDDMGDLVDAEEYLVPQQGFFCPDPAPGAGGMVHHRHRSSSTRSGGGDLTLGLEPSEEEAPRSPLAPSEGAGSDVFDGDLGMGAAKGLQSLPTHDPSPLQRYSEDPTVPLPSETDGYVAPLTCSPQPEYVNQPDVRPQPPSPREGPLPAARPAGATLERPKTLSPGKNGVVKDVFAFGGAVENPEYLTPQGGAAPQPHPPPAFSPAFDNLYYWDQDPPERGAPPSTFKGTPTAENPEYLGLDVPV
Briefly: Activity for inhibiting HER2 (Table B), HER2 S310F. The note with it: read-out: HER2 S310F, potency code (IC50). The protocol:
(§1) EC50 values were determined with the same application.

Assay [5] addresses T1, EGFR WT. Briefly: BaF3 cell proliferation assay, EGFR WT (Table A). The conditions noted are these: potency code, 3 days, CellTiterGlo, read-out: EGFR WT (Activity for Inhibiting EGFR). In outline:
(§2)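 BaF3 + retroviral EGFR/HER2 mutant (two rounds of spinfection, 8 μg/ml polybrene); 10 μg/ml Blasticidin selection 1 wk; IL-3 withdrawn to select IL-3-independent growth. EC50 from cell proliferation.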
For orientation: ATP-based viability assays read luminescence as a measure of living cells.

In assay [6] the target is T2, EGFR V3. Briefly: BaF3 cell proliferation assay, EGFR V3 (Table A). The conditions noted are these: potency code, 3 days, CellTiterGlo, read-out: EGFR V3 (Activity for Inhibiting EGFR). In outline: as §2
The target in assay [7] is T3, HER2 WT. Briefly: BaF3 cell proliferation assay, HER2 WT (Table B). The note with it: potency code, 3 days, CellTiterGlo, read-out: HER2 WT (Activity for Inhibiting HER2).
Assay [8] deals with T4, HER2 S310F. Briefly: BaF3 cell proliferation assay, HER2 S310F (Table B). The conditions noted are these: potency code, 3 days, CellTiterGlo, read-out: HER2 S310F (Activity for Inhibiting HER2).
The target of assay [9] is T5, HER2 YVMA (Homo sapiens, UniProt P04626, INS775YVMA).
T5 construct: expressed in transfected cells; host or cells: BaF3 (murine pro-B)
Briefly: Activity for inhibiting HER2 (Table B), HER2 YVMA. The conditions noted are these: read-out: HER2 YVMA, potency code (IC50). The protocol:
as §1

Assay [10] addresses T5, HER2 YVMA. Briefly: BaF3 cell proliferation assay, HER2 YVMA (Table B). The note with it: potency code, 3 days, CellTiterGlo, read-out: HER2 YVMA (Activity for Inhibiting HER2).
Setting [11] is: Table B, read-out: HER2 WT, potency code (IC50).
Where [12] appears, read: text lists of compounds, read-out: IC50 value for inhibiting wild-type HER2.

T3 sequence (P04626 23-1255): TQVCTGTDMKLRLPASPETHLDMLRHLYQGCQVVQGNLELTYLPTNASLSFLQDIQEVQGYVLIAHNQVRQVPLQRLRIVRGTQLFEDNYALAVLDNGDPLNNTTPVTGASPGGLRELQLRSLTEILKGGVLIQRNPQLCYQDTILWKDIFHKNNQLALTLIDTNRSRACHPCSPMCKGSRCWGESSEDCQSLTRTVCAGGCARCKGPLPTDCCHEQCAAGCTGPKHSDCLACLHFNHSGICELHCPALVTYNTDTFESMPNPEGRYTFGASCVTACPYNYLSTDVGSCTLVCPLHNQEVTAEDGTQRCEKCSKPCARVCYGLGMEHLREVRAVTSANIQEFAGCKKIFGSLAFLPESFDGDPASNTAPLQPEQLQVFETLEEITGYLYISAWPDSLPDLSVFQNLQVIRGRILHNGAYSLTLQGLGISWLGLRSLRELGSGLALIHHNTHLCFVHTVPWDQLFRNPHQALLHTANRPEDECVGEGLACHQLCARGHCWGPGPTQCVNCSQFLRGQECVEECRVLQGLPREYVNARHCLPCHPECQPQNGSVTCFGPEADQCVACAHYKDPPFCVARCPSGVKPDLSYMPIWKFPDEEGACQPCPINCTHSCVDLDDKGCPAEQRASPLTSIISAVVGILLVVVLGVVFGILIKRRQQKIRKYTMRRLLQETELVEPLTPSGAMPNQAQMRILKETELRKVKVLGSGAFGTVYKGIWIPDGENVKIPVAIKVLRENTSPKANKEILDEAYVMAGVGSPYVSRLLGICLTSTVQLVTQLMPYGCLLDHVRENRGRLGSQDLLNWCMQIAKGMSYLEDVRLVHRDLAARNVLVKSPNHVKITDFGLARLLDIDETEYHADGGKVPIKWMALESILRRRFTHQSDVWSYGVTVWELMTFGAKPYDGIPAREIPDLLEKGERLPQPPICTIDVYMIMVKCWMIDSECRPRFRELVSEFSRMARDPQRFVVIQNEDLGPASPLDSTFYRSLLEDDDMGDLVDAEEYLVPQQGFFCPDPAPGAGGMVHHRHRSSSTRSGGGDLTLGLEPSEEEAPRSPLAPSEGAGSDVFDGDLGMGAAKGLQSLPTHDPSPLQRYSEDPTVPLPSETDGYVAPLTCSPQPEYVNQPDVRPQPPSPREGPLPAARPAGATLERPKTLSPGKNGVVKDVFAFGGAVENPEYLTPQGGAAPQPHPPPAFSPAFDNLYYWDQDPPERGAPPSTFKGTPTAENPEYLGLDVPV
T1 sequence (P00533 25-1210 N540K): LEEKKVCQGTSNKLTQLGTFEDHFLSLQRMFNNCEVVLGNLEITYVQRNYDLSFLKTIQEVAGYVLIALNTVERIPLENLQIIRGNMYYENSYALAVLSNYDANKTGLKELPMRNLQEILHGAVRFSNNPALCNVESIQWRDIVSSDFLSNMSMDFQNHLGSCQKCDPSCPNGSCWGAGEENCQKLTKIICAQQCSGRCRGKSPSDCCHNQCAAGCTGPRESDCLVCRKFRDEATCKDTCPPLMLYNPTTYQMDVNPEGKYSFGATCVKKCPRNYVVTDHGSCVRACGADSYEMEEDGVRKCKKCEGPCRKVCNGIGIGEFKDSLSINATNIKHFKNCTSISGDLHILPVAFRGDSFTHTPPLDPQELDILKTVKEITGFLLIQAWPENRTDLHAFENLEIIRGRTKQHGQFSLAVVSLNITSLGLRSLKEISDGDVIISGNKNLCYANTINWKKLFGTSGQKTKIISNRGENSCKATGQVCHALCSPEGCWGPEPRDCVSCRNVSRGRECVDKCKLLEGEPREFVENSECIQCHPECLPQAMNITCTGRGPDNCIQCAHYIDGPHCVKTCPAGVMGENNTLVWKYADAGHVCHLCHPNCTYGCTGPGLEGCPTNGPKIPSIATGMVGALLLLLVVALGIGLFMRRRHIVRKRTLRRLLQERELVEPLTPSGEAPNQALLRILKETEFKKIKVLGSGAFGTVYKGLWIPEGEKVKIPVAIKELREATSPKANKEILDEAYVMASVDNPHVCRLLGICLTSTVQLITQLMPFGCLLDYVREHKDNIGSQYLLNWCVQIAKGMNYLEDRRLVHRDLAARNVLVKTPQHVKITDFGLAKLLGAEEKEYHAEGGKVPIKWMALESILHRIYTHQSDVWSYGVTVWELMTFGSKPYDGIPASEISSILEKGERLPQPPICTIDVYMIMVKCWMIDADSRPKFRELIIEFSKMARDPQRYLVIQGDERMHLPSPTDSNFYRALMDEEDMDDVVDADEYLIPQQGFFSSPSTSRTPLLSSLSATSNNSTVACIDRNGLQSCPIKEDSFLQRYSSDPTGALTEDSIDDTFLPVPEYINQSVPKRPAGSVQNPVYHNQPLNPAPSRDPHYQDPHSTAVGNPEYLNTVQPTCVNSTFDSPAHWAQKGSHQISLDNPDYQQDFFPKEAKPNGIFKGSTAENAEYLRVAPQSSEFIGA

Regarding `C=CC(=O)Nc1cc2c(Nc3ccc(OCc4cccc(F)c4)c(Cl)c3)ncnc2cc1N(C)CCN(C)C` [compound 1], the IC50 is more than 1000 nM in [1]; 100 to 200 nM in assay [2]; 50 to 100 nM in assay [3] (setting [11]); 500 to 1000 nM in [4]; more than 1000 nM in assay [5]; 100 to 200 nM in assay [6]. Moreover, the IC50 in assay [7] lay within 50 to 100 nM; in [8], 500 to 1000 nM.
For the compound `C=CC(=O)Nc1cc2c(Nc3ccc(OCc4cccc(F)c4)c(Cl)c3)ncnc2cc1N(C)CCN1CCOCC1` [compound 2], the IC50 in [1] was more than 1000 nM; in assay [2] it was 50 to 100 nM; in assay [3] (setting [11]) it was 100 to 200 nM; in assay [4], 300 to 500 nM; in assay [5], more than 1000 nM; in assay [6] it was 50 to 100 nM. The IC50 was 100 to 200 nM in assay [7] and 300 to 500 nM in [8].
Regarding `C=CC(=O)Nc1cc2c(Nc3ccc(OCc4cccc(F)c4)c(Cl)c3)ncnc2cc1OCCCN1CCOCC1` [compound 3], the IC50 is 300 to 500 nM in assay [1]; 30 to 50 nM in [2]; 10 to 20 nM in assay [3] (setting [11]); not above 20 nM in assay [3] (setting [12]); 20 to 30 nM in [4]; 300 to 500 nM in [5]. In addition, the results for the IC50 in assay [6], in assay [7] and in assay [8] were 30 to 50 nM, 10 to 20 nM and 20 to 30 nM, respectively.
Turning to `CC#CC(=O)Nc1cc2c(Nc3ccc(OCc4ccccn4)c(Cl)c3)ncnc2cc1N(C)CCN1CCOCC1` [compound 4], the IC50 in assay [1] is 200 to 300 nM; in assay [2], 50 to 100 nM; in assay [3] (setting [11]), 20 to 30 nM; in [3] (setting [12]), not above 50 nM; in assay [4], 50 to 100 nM; in assay [5] it was 200 to 300 nM. Moreover, the IC50 lay in the range of 50 to 100 nM in [6], 20 to 30 nM in [7] and 50 to 100 nM in assay [8].
With `C=CC(=O)Nc1cc2c(Nc3ccc(OCc4ccccn4)c(Cl)c3)ncnc2cc1N(C)CCN1CCOCC1` [compound 7], the IC50 is more than 1000 nM in assay [1]; 100 to 200 nM in [2]; 100 to 200 nM in assay [3] (setting [11]); 200 to 300 nM in [4]; more than 1000 nM in [5]; 100 to 200 nM in assay [6]. In addition, the IC50 in assay [7] fell in the range of 100 to 200 nM; in [8] it was 200 to 300 nM.
On to `C=CC(=O)Nc1cc2c(Nc3ccc(OCc4ccccn4)cc3)ncnc2cc1OCCn1ccnc1` [compound 9], for which the IC50 in assay [1] was 500 to 1000 nM; in assay [2], 50 to 100 nM; in assay [3] (setting [11]) it was 10 to 20 nM; in assay [3] (setting [12]), not above 20 nM; in assay [4], 100 to 200 nM; in [5] it was 500 to 1000 nM. Moreover, the figures for the IC50 in assay [6], in assay [7] and in assay [8] were 50 to 100 nM, 10 to 20 nM and 100 to 200 nM, respectively.
Turning to `C=CC(=O)Nc1cc2c(Nc3ccc(OCc4ccccn4)cc3)ncnc2cc1OCCN1CC2CN(C)CC2C1` (stereo not drawn) [compound 81], the IC50 was 200 to 300 nM in assay [1]; 100 to 200 nM in assay [2]; not above 50 nM in assay [3] (setting [12]); 100 to 200 nM in [4]; more than 1000 nM in assay [9]; 200 to 300 nM in assay [5]. Besides, the IC50 is 100 to 200 nM in assay [6], 100 to 200 nM in assay [8] and more than 1000 nM in assay [10].
With `C=CC(=O)Nc1cc2c(Nc3ccc(OCc4cnccn4)c(Cl)c3)ncnc2cc1OCCCN1CCOCC1` [compound 169], the IC50 in assay [1] was more than 1000 nM; in assay [2], 30 to 50 nM; in [4], 10 to 20 nM; in [9] it was 30 to 50 nM; in assay [5] it was more than 1000 nM; in assay [6], 30 to 50 nM. The IC50 in assay [8] lay within 10 to 20 nM; in assay [10], 30 to 50 nM.
`CC#CC(=O)Nc1cc2c(Nc3ccc(OCc4cnccn4)c(Cl)c3)ncnc2cc1OCCCN1CCOCC1` [compound 170, N-(4-((3-chloro-4-(pyrazin-2-ylmethoxy)phenyl)amino)-7-(3-morpholinopropoxy)quinazolin-6-yl)but-2-ynamide]: the IC50 in [1] fell in the range of 200 to 300 nM; in assay [2], 30 to 50 nM; in assay [4], 5 to 10 nM; in [9], 10 to 20 nM; in assay [5] it was 200 to 300 nM; in assay [6], 30 to 50 nM. Moreover, the values for the IC50 in [8] and in [10] were 5 to 10 nM and 10 to 20 nM, respectively.
Consider `C=CC(=O)Nc1cc2c(Nc3ccc(OCc4cccnn4)c(Cl)c3)ncnc2cc1OCCN1CCOCC1` [compound 171], for which the IC50 is more than 1000 nM in assay [1]; 50 to 100 nM in [2]; 50 to 100 nM in [4]; 300 to 500 nM in [9]; more than 1000 nM in assay [5]; 50 to 100 nM in assay [6]. Further, the IC50 lay within 50 to 100 nM in assay [8] and 300 to 500 nM in assay [10].
Regarding `C=CC(=O)Nc1cc2c(Nc3ccc(OCc4cccnn4)c(Cl)c3)ncnc2cc1OCCN1CCN(C)CC1` [compound 172], the IC50 in [1] lay in the range of 500 to 1000 nM; in [2], 100 to 200 nM; in [4] it was 50 to 100 nM; in [9], 300 to 500 nM; in [5], 500 to 1000 nM; in assay [6], 100 to 200 nM. The IC50 in [8] is 50 to 100 nM; in [10], 300 to 500 nM.
Consider `C=CC(=O)Nc1cc2c(Nc3ccc(OCc4cccnn4)c(Cl)c3)ncnc2cc1OCCN1CC2CCC(C1)O2` [compound 173], for which the IC50 was more than 1000 nM in assay [1]; 50 to 100 nM in [2]; 30 to 50 nM in [4]; 200 to 300 nM in [9]; more than 1000 nM in assay [5]; 50 to 100 nM in assay [6]. In addition, the values for the IC50 in assay [8] and in assay [10] were 30 to 50 nM and 200 to 300 nM, respectively.
For `C=CC(=O)Nc1cc2c(Nc3ccc(OCc4cccnn4)c(Cl)c3)ncnc2cc1OCCN1CC(OC)C1` [compound 174], the IC50 in assay [1] was more than 1000 nM; in [2], 50 to 100 nM; in assay [4], 50 to 100 nM; in assay [9] it was 300 to 500 nM; in assay [5], more than 1000 nM; in assay [6], 50 to 100 nM. For the same compound, the IC50 is 50 to 100 nM in assay [8] and 300 to 500 nM in assay [10].
As to `C=CC(=O)Nc1cc2c(Nc3ccc(OCc4cnccn4)c(Cl)c3)ncnc2cc1OCCN1CC2CCC(C1)O2` [compound 175], the IC50 is more than 1000 nM in assay [1]; 30 to 50 nM in assay [2]; 20 to 30 nM in [4]; 100 to 200 nM in [9]; more than 1000 nM in assay [5]; 30 to 50 nM in assay [6]. Besides, the results for the IC50 in assay [8] and in [10] were 20 to 30 nM and 100 to 200 nM, respectively.
As for `C=CC(=O)Nc1cc2c(Nc3ccc(OCc4cnccn4)c(Cl)c3)ncnc2cc1OCCN1CCOCC1` [compound 176], the IC50 was more than 1000 nM in assay [1]; 30 to 50 nM in assay [2]; 20 to 30 nM in [4]; 100 to 200 nM in assay [9]; more than 1000 nM in [5]; 30 to 50 nM in assay [6]. For the same compound, the IC50 in [8] fell in the range of 20 to 30 nM; in assay [10] it was 100 to 200 nM.
`C=CC(=O)Nc1cc2c(Nc3ccc(OCc4cccnn4)c(Cl)c3)ncnc2cc1OCCCN1CC(OC)C1` [compound 177]: the IC50 fell in the range of 500 to 1000 nM in assay [1]; 30 to 50 nM in [2]; 10 to 20 nM in assay [4]; 50 to 100 nM in assay [9]; 500 to 1000 nM in [5]; 30 to 50 nM in assay [6]. Further, the IC50 lay in the range of 10 to 20 nM in assay [8] and 50 to 100 nM in [10].
In the case of `C=CC(=O)Nc1cc2c(Nc3ccc(OCc4cnccn4)c(Cl)c3)ncnc2cc1OCCN1CC(OC)C1` [compound 178], the IC50 in assay [1] is more than 1000 nM; in [2], 30 to 50 nM; in assay [4], 30 to 50 nM; in [9], 100 to 200 nM; in assay [5], more than 1000 nM; in [6], 30 to 50 nM. Besides, the IC50 is 30 to 50 nM in assay [8] and 100 to 200 nM in [10].
Take `C=CC(=O)Nc1cc2c(Nc3ccc(OCc4cnccn4)c(Cl)c3)ncnc2cc1OCCCN1CC(OC)C1` [compound 179]: the IC50 fell in the range of 500 to 1000 nM in assay [1]; 30 to 50 nM in assay [2]; 10 to 20 nM in [4]; 30 to 50 nM in assay [9]; 500 to 1000 nM in assay [5]; 30 to 50 nM in assay [6]. Further, the values for the IC50 in assay [8] and in assay [10] were 10 to 20 nM and 30 to 50 nM, respectively.
`C=CC(=O)Nc1cc2c(Nc3ccc(OCc4cnccn4)c(Cl)c3)ncnc2cc1OCCN1CCN(C)CC1` [compound 180]: the IC50 in assay [1] fell in the range of 500 to 1000 nM; in assay [2], 30 to 50 nM; in assay [4], 20 to 30 nM; in assay [9] it was 100 to 200 nM; in [5], 500 to 1000 nM; in [6], 30 to 50 nM. Also, the IC50 in [8] was in the range of 20 to 30 nM; in [10], 100 to 200 nM.
